# According to paper PMC3776224, “Investigation of acyclic uridine amide and 5′-amido nucleoside analogues as potential inhibitors of the Plasmodium falciparum dUTPase^” (Bioorganic & Medicinal Chemistry, 2013):
# Where two headings read alike, the source gives them in different places.
# Key:
# [1] = test system: L6 cells (rat skeletal myoblast cells); conditions: previously reported, cited from earlier work; for EC50: cytotoxicity on rat L6 myoblasts, mean of two independent assays, read-out: In vitro assays EC50 L6 cells
# [2] = test system: P. falciparum K1, a chloroquine and pyrimethamine resistant strain; conditions: mean of two independent assays, previously reported, read-out: In vitro assays EC50 P.f.; cited from earlier work
# recombinant PfdUTPase [3] = biological target: T1, recombinant PfdUTPase (Plasmodium falciparum, UniProt Q8II92); conditions: previously reported; cited from earlier work
# T1 construct: made in house; host or cells: E. coli BL21 (DE3)
# T1 sequence (Q8II92 1-173): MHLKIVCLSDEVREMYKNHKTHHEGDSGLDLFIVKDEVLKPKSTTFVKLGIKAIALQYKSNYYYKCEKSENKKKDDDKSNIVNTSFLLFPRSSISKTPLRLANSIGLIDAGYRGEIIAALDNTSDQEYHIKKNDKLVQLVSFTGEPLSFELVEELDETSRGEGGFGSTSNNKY
# [4] = biological target: T2, human dUTPase (HsdUTPase) (Homo sapiens, UniProt P33316); conditions: previously reported; read-out: Enzyme assay Ki HsdUTPase; cited from earlier work
# T2 construct: made in house; host or cells: E. coli BL21 (DE3)
# T2 sequence (P33316 112-252 limits assumed): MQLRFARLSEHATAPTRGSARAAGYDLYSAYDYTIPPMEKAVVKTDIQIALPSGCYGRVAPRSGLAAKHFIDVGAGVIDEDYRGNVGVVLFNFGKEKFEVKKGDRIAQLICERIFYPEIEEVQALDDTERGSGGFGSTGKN
# recombinant PfdUTPase [5] = biological target: T1, recombinant PfdUTPase; test: PfdUTPase enzyme inhibition assay (dUTP hydrolysis, Ki); type: biochemical; conditions: for Ki: read-out: Enzyme assay, Ki P.fal
# Description: (§1) Biological activity was evaluated by testing all compounds against the recombinant PfdUTPase and human dUTPase (HsdUTPase) in order to determine inhibition constants and selectivity.
# Both recombinant P. falciparum and human dUTPases were expressed in E. coli BL21 (DE3) cells which had been transformed with the pET11Pfdut and pET3Hudut (kindly provided by P.O. Nyman, Lund University, Sweden) expression vectors, respectively. For dUTPase purification, the same procedure was used for both the human and the Plasmodium enzymes. Cell pellets from a 2.8 L IPTG-induced culture were resuspended in 70 mL of buffer A (20 mM MES, 50 mM NaCl, 1 mM DTT, pH 5.5) containing a protease inhibitor cocktail. The cells were lysed by sonication, and the cell extract was cleared by centrifugation at 14,000 rpm for 30 min. The supernatant was loaded onto a 40 mL phosphocellulose (Whatman P-11) column at 4 °C and eluted with a 50 mM to 1 M NaCl gradient in buffer A. Protein was further purified by gel filtration chromatography on a Superdex 200 HA 10/30 column at 4 °C. Pooled fractions were concentrated by centrifugation at 4 °C and desalted using a PD-10 column. The enzyme was stored in 10 mM bicine and 5 mM MgCl2, pH 8 at −80 °C.
# (§2) Nucleotide hydrolysis was monitored by mixing enzyme and substrate with a rapid kinetic accessory (Hi-Tech Scientific) attached to a spectrophotometer (Cary 50) and connected to a computer for data acquisition and storage as described previously.[17] Protons, released through the hydrolysis of nucleotides, were neutralized by a pH indicator in weak buffered medium with similar pKa and monitored spectrophotometrically at the absorbance peak of the basic form of the indicator. The ratio between the indicator and the buffer concentration was 50:[…], and the absorbance changes were kept within 0.1 units. The indicator/buffer pair used was red cresol/bicine (pH 8, 573 nm). Assay mixes contained 30 nM PfdUTPase, 50 μM dUTP, 5 mM MgCl2, 1 mg/mL BSA, and 100 mM KCl. Vmax and KMapp were calculated by fitting the resulting data to the integrated Michaelis–Menten equation.
# [6] = test system: P. falciparum K1, a chloroquine and pyrimethamine resistant strain; test: In vitro antiplasmodial activity, parasites cultured in erythrocytes; type: cell-based; conditions: Plasmodium falciparum, Erythrocyte, mean of two independent assays, read-out: In vitro assays, EC50 P.fal.
# Description: as §1
# (§3) Activity against P. falciparum K1 strain and cytotoxicity assessment against L6 cells (rat skeletal myoblast cells) was determined as previously reported.[9]
# [7] = test system: L6 cells (rat skeletal myoblast cells); test: Cytotoxicity on rat L6 myoblasts; type: cell-based
# Description: as §3
# [8] = biological target: T2, human dUTPase (HsdUTPase); test: Human dUTPase enzyme inhibition assay (dUTP hydrolysis, Ki); type: biochemical; conditions: recombinant human dUTPase; read-out: Enzyme assay, Ki H. sap.
# Description: as §1
# Both recombinant P. falciparum and human dUTPases were expressed in E. coli BL21 (DE3) cells which had been transformed with the pET11Pfdut and pET3Hudut (kindly provided by P.O. Nyman, Lund University, Sweden) expression vectors, respectively. For dUTPase purification, the same procedure was used for both the human and the Plasmodium enzymes. Cell pellets from a 2.8 L IPTG-induced culture were resuspended in 70 mL of buffer A (20 mM MES, 50 mM NaCl, 1 mM DTT, pH 5.5) containing a protease inhibitor cocktail. […]
# as §2, with “The indicator/buffer pair used was red cresol/bicine (pH 8, 573 nm). Assay mixes contained 30 nM PfdUTPase, 50 μM dUTP, 5 mM MgCl2, 1 mg/mL BSA, and 100 mM KCl. Vmax and KMapp were calculated by fitting the resulting data to the integrated Michaelis–Menten equation.” left out
# [9] = recombinant PfdUTPase, 50 μM dUTP, pH 8
# [10] = cytotoxicity on rat L6 myoblasts, mean of two independent assays, read-out: In vitro assays, EC50 L6 cells (Tox)
smiles,measurement,setting,value
O=c1ccn(CCCOC(c2ccccc2)(c2ccccc2)c2ccccc2)c(=O)[nH]1 [Compound 1a],EC50,[1],34 µM
same,EC50,[2],7.5 µM
same,Selectivity index (SI) for enzyme [KiHsdUTPase/KiPfdUTPase],recombinant PfdUTPase [3],4
O=c1ccn(CCCCOC(c2ccccc2)(c2ccccc2)c2ccccc2)c(=O)[nH]1 [Compound 1b],EC50,[1],42 µM
same,EC50,[2],4.9 µM
same,Ki,[4],> 1000 µM
O=c1ccn(CCCCCOC(c2ccccc2)(c2ccccc2)c2ccccc2)c(=O)[nH]1 [Compound 1c],EC50,[1],24 µM
same,EC50,[2],1.1 µM
same,Ki,[4],> 1000 µM
O=c1ccn(CCCCCCOC(c2ccccc2)(c2ccccc2)c2ccccc2)c(=O)[nH]1 [Compound 1d],EC50,[1],44 µM
same,EC50,[2],2.3 µM
O=c1ccn(CCCNC(c2ccccc2)(c2ccccc2)c2ccccc2)c(=O)[nH]1 [Compound 1e],EC50,[1],107 µM
same,EC50,[2],4.4 µM
O=c1ccn(CCCCNC(c2ccccc2)(c2ccccc2)c2ccccc2)c(=O)[nH]1 [Compound 1f],EC50,[1],33 µM
same,EC50,[2],3.8 µM
same,Selectivity index (SI) for enzyme [KiHsdUTPase/KiPfdUTPase],recombinant PfdUTPase [3],>1111
same,Ki,[4],> 1000 µM
O=c1ccn(CCCCCNC(c2ccccc2)(c2ccccc2)c2ccccc2)c(=O)[nH]1 [Compound 1g],EC50,[1],39 µM
same,EC50,[2],2.2 µM
same,Ki,[4],> 1000 µM
O=c1ccn(CCCCCCNC(c2ccccc2)(c2ccccc2)c2ccccc2)c(=O)[nH]1 [Compound 1h],EC50,[1],40 µM
same,EC50,[2],1.1 µM
same,Selectivity index (SI) for enzyme [KiHsdUTPase/KiPfdUTPase],recombinant PfdUTPase [3],>556
same,Ki,[4],> 1000 µM
O=c1ccn([C@H]2C[C@H](O)[C@@H](COC(c3ccccc3)(c3ccccc3)c3ccccc3)O2)c(=O)[nH]1 [Compound 2a],EC50,[1],192 µM
same,Cell selectivity index (SI) [EC50 L6/EC50 P. falciparum],[1],32
same,EC50,[2],6 µM
same,Selectivity index (SI) for enzyme [KiHsdUTPase/KiPfdUTPase],recombinant PfdUTPase [3],10
O=c1ccn([C@H]2C[C@H](O)[C@@H](CNC(c3ccccc3)(c3ccccc3)c3ccccc3)O2)c(=O)[nH]1 [Compound 2b],EC50,[2],4.5 µM
same,Selectivity index (SI) for enzyme [KiHsdUTPase/KiPfdUTPase],recombinant PfdUTPase [3],232
O=c1ccn([C@H]2C[C@H](O)[C@@H](CNC(c3ccccc3)c3ccccc3)O2)c(=O)[nH]1 [Compound 2c],EC50,[1],> 229 µM
"O=C(NCCCO)C(c1ccccc1)c1ccccc1 [Compound 3, N-(3-Hydroxypropyl)-2,2-diphenylacetamide]",Ki,recombinant PfdUTPase [5]; [9],> 100 µM
same,EC50,[6],19 µM
same,Cell selectivity index (SI) [EC50 L6/EC50 P. falciparum],[7],1.0
same,EC50,[7]; [10],18 µM
"O=C(NCCCO)C(c1ccccc1)(c1ccccc1)c1ccccc1 [Compound 4, N-(3-Hydroxypropyl)-2,2,2-triphenylacetamide]",Ki,recombinant PfdUTPase [5]; [9],1000 µM
same,EC50,[6],9.8 µM
same,Cell selectivity index (SI) [EC50 L6/EC50 P. falciparum],[7],1.9
same,EC50,[7]; [10],19 µM
"O=C(c1ccccc1)n1c(=O)ccn(CCCNC(=O)C(c2ccccc2)(c2ccccc2)c2ccccc2)c1=O [Compound 6, 3-Benzoyl-(1-(3-(triphenylacetylamino)propyl)uracil)]",Ki,recombinant PfdUTPase [5]; [9],> 100 µM
same,EC50,[6],6.7 µM
same,Cell selectivity index (SI) [EC50 L6/EC50 P. falciparum],[7],1.4
same,EC50,[7]; [10],9 µM
"O=C(NCCCn1ccc(=O)[nH]c1=O)C(c1ccccc1)c1ccccc1 [Compound 7, 1-(3-(Diphenylacetylamino)propyl)uracil]",Selectivity index (SI) for enzyme [KiHsdUTPase/KiPfdUTPase],recombinant PfdUTPase [5],26
same,Ki,recombinant PfdUTPase [5]; [9],11 µM
same,EC50,[6],14 µM
same,Ki,[8],286 µM
same,melting point,,145 to 147 °C
same,Cell selectivity index (SI) [EC50 L6/EC50 P. falciparum],[7],1.3
same,EC50,[7]; [10],18 µM
"O=C(NCCCn1ccc(=O)[nH]c1=O)C(c1ccccc1)(c1ccccc1)c1ccccc1 [Compound 8, 1-(3-(Triphenylacetylamino)propyl)uracil]",Ki,recombinant PfdUTPase [5]; [9],6.3 µM
same,melting point,,154 to 156 °C
"O=C(O)CCCn1ccc(=O)[nH]c1=O [Compound 10, 1-(Carboxypropyl)uracil]","Enzyme assay, Ki P.fal",recombinant PfdUTPase [5]; [9],low affinity
same,Ki,recombinant PfdUTPase [5]; [9],> 100 µM
same,EC50,[6],25 µM
same,melting point,,174 to 176 °C
same,Cell selectivity index (SI) [EC50 L6/EC50 P. falciparum],[7],0.7
same,EC50,[7]; [10],18 µM
"O=C(CCCn1ccc(=O)[nH]c1=O)NC(c1ccccc1)c1ccccc1 [Compound 11, 1-[3-(Benzhydrylaminocarbonyl)propyl]uracil]",Ki,recombinant PfdUTPase [5]; [9],0.7 µM
"O=C(CCCn1ccc(=O)[nH]c1=O)NC(c1ccccc1)(c1ccccc1)c1ccccc1 [Compound 12, 1-[3-(Tritylaminocarbonyl)propyl]uracil]",Ki,recombinant PfdUTPase [5]; [9],0.2 µM
"O=C(NC(c1ccccc1)c1ccccc1)[C@H]1O[C@@H](n2ccc(=O)[nH]c2=O)C[C@@H]1O [Compound 17, 2′,5′-Dideoxyuridine-5′-N-benzhydryl carboxamide]",Selectivity index (SI) for enzyme [KiHsdUTPase/KiPfdUTPase],recombinant PfdUTPase [5],>12
same,Ki,recombinant PfdUTPase [5]; [9],8.3 µM
same,EC50,[6],> 5 µM
same,Ki,[8],> 100 µM
same,EC50,[7]; [10],> 90 µM
"COc1cc([C@@H]2c3cc4c(cc3[C@H](O)[C@H]3COC(=O)[C@H]23)OCO4)cc(OC)c1OC [podophyllotoxin, reference compound]",EC50,"[7]; Rattus norvegicus, L6, read-out: In vitro assays, EC50 L6 cells (Tox)",0.012 µM
